Data taken from patent US12031989B2, “Preparing live microbial samples and microorganisms for subsequent mass spectrometric measurement and evaluation” (Bruker Daltonics GmbH & Co. KG, priority 2016, dated 2024).

How the values were obtained:
[1] = system: Klebsiella pneumoniae meropenem-resistant strain; assay: resistance/sensitivity test directly on MALDI-TOF MS sample support, meropenem-resistant strain; format: cell-based
Text: (§1) The antibiotic (for example an antibiotic solution in a liquid nutrient medium) can be mixed with a microorganism suspension either in a cultivation vessel or directly on a spot of a MALDI-TOF MS support 12 (hatched droplet 14*). In addition, this is generally accompanied by a growth control on a different section of the MALDI-TOF MS support, i.e. a cultivation of the microorganism suspension in a nutrient medium without the addition of an antibiotic (unhatched droplet 14). It is preferable for a very small quantity of the suspension to be applied to the spots; for example 1-10 microliters. The sensitivity test thus takes place in microdroplets 14, 14*, preferably with a volume of around 4-8 microliters. The use of even smaller volumes is also possible in principle, for example in the form of nanodroplets. The initial microorganism concentration in the droplets 14, 14* can be slightly below the detection limit of a conventional MALDI time-of-flight mass spectrometer with linear flight path, and thus amount to around 5×10^5 cfu per milliliter, for example (cfu—colony forming unit). FIG. 3A.
In the example shown, the MALDI-TOF MS support 12 with the test solution is subsequently cultured in a so-called “humidity chamber” 16 in an incubator at high humidity. The purpose of the humidity chamber 16 is to prevent the droplets 14, 14* from evaporating prematurely during the incubation, and it can take the form of a box with a lid, made of plastic, for example, into which the MALDI-TOF MS support can easily be placed. […] A small quantity of liquid can be put in the humidity chamber 16, for example 0.1 to 5 milliliters of water or NaCl solution to humidify the atmosphere in the chamber 16 and thus set a high ambient humidity (nearly 100%) so that the evaporation of the droplets of nutrient medium 14, 14* themselves is prevented. FIG. 3B.
In the droplets 14, 14*, a high concentration of the microorganisms in a small volume of liquid is rapidly achieved during incubation (as long as the growth is not inhibited by antimicrobial substances). […]

[2] = system: Klebsiella pneumoniae meropenem-sensitive strain; assay: resistance/sensitivity test directly on MALDI-TOF MS sample support, meropenem-sensitive strain; format: cell-based
Text: as §1, with “The initial microorganism concentration in the droplets 14, 14* can be slightly below the detection limit of a conventional MALDI time-of-flight mass spectrometer with linear flight path, and thus amount to around 5×10^5 cfu per milliliter, for example (cfu—colony forming unit). FIG. 3A.” left out
In the example shown, the MALDI-TOF MS support 12 with the test solution is subsequently cultured in a so-called “humidity chamber” 16 in an incubator at high humidity. […] A small quantity of liquid can be put in the humidity chamber 16, for example 0.1 to 5 milliliters of water or NaCl solution to humidify the atmosphere in the chamber 16 and thus set a high ambient humidity (nearly 100%) so that the evaporation of the droplets of nutrient medium 14, 14* themselves is prevented. […]

[3] = 2 micrograms per milliliter, 6 microliter droplet, four hours incubation, MALDI Biotyper evaluation

## C[C@@H](O)[C@H]1C(=O)N2C(C(=O)O)=C(S[C@@H]3CN[C@H](C(=O)N(C)C)C3)[C@H](C)[C@H]12 [meropenem]
[1]; [3]
  bacterial growth in the presence of meropenem (specific mass signal signatures vs growth control): not inhibited
[1]; 4 microliter droplet, measurements occasionally below threshold, FIG. 4B
  relative growth, median: greater than 0.4
[1]; droplet sizes 2, 6, 8 and 10 microliters, significant growth threshold 0.4, FIG. 4B
  relative growth: greater than 0.4
[2]; [3]
  bacterial growth in the presence of meropenem (specific mass signal signatures vs growth control): cannot multiply (or scarcely)
[2]; droplet sizes 2, 4, 6, 8 and 10 microliters, significant growth threshold 0.4, FIG. 4B
  relative growth: < 0.4
